Results reported in PubChem BioAssay (NCI).
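Grown in 96-well plates, cells were treated for 48 hours with each compound at five concentrations. Insufficient inhibition: endpoint recorded as highest concentration tested. TGI denotes the concentration required for complete inhibition of growth.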 Where a SMILES comes first, the peptide text is derived from it. [ ]: non-standard residue; d: D form. The star is where a group is joined. NMeAc5c = CNC1(C(=O)O)CCCC1; Boc = CC(C)(C)OC(=O)*; OBn = c1ccc(CO*)cc1

Tests used:
Assay in all cases: NCI tumour cell line growth inhibition, 48 h
OVCAR-3 ovarian = test system: OVCAR-3 ovarian
MDA-N = test system: MDA-N
KM12 colon = test system: KM12 colon
MCF7 breast = test system: MCF7 breast
HT29 colon = test system: HT29 colon
SK-MEL-28 melanoma = test system: SK-MEL-28 melanoma
K-562 leukemia = test system: K-562 leukemia
SK-OV-3 ovarian = test system: SK-OV-3 ovarian
MDA-MB-435 = test system: MDA-MB-435
RXF 393 renal = test system: RXF 393 renal

SMILES	TGI (OVCAR-3 ovarian)	TGI (MDA-N)	TGI (KM12 colon)	TGI (MCF7 breast)	TGI (HT29 colon)	TGI (SK-MEL-28 melanoma)	TGI (K-562 leukemia)	TGI (SK-OV-3 ovarian)	TGI (MDA-MB-435)	TGI (RXF 393 renal)
CCCCCCCCCCCCCCNC(=O)CCC(NC(=O)c1ccc(N(C)Cc2cnc3nc(N)nc(N)c3n2)cc1)C(=O)NCCCCCCCCCCCCCC (stereo not given)	> 46 µM	21.9 µM	18 µM	29.2 µM	27 µM	40.7 µM	> 100 µM	28.3 µM	25.6 µM	34.2 µM
CN1CCN(C2=NCCO2)CC1	> 100 µM	> 100 µM	> 100 µM	> 100 µM	> 100 µM	> 100 µM	> 100 µM	> 100 µM	> 100 µM	> 100 µM
NC(N)=N/N=C/c1c(-c2ccc(N)cc2)nc2sccn12	67.3 µM	60.1 µM	> 100 µM	> 100 µM	56.8 µM	> 100 µM	66.1 µM	64 µM	94 µM	39.9 µM
C=CC1(C)CCC2C(=CCC3C2(C)CC(O)C(O)C3(C)COC2OC(C(=O)O)C(O)C(O)C2O)C1 (stereo not given) (tested in a mixture with another compound)	> 100 µM	> 100 µM	> 100 µM	> 100 µM	> 100 µM	> 100 µM	> 100 µM	> 100 µM	> 100 µM	> 100 µM
O=C1C=CC(=O)c2c1ccc1c3ccccc3n(CCCCCCCCCCCCn3c4ccccc4c4ccc5c(c43)C(=O)C=CC5=O)c21	> 100 µM	> 100 µM	> 100 µM	> 100 µM	> 100 µM	> 100 µM	> 100 µM	> 100 µM	> 100 µM	> 100 µM
CC(C)(C)OC(=O)NCCCCC1NC(=O)[C@@H]2Cc3c([nH]c4ccccc34)C(C3CCCCC3)N2C1=O (stereo not given in full)	47.5 µM	> 100 µM	> 100 µM	> 100 µM	> 100 µM	> 100 µM	> 100 µM	> 100 µM	> 100 µM	25.6 µM
COc1cc(Br)cc2cc(-c3cn4ccsc4n3)c(=O)oc12	> 100 µM	42.2 µM	56.5 µM	38.6 µM	> 100 µM	> 100 µM	> 100 µM	> 100 µM	51.2 µM	75.7 µM
COC(=O)C([C@H](NC1(c2ccccc2)c2ccccc2-c2ccccc21)C(=O)OC)N(NC(=O)OCc1ccccc1)C(=O)OCc1ccccc1 (mixture of isomers)	> 100 µM	> 100 µM	> 100 µM	> 100 µM	> 100 µM	> 100 µM	> 100 µM	> 100 µM	> 100 µM	> 100 µM
CCOC(=O)/C=C/CC(C)(C)CCOC(C)=O	> 10 µM	> 10 µM	> 10 µM	> 10 µM	> 10 µM	> 10 µM	> 10 µM	> 10 µM	> 10 µM	> 10 µM
COc1ccc(C2CC(c3c(O)ccc4ccccc34)=NN2C(C)=O)cc1OC (stereo not given)	69.6 µM	56.4 µM	> 100 µM	71.5 µM	> 100 µM	> 100 µM	43.8 µM	> 100 µM	69.2 µM	84.2 µM
CC[C@@H]1CC[C@@H]2[C@H](CC[C@]3(C)[C@@H](OC(C)=O)CC[C@@H]23)[C@H]1COC(C)=O	34.6 µM	62.2 µM	60 µM	> 100 µM	39.5 µM	> 100 µM	36.2 µM	> 100 µM	50.2 µM	45.9 µM
COc1cc2nc3n(c(=O)c2cc1OC)-c1ccc([N+](=O)[O-])cc1C3=O	> 100 µM	> 100 µM	> 100 µM	32 µM	> 100 µM	> 100 µM	> 100 µM	> 100 µM	40.1 µM	79.7 µM
CN(C(=O)C(Cc1ccccc1)NC(=O)OC(C)(C)C)C1(C(=O)NC(Cc2ccccc2)C(=O)OCc2ccccc2)CCCC1 (stereo not drawn) (Boc-Phe-[NMeAc5c]-Phe-OBn; configuration not given here)	> 100 µM	65.4 µM	> 100 µM	> 100 µM	56.7 µM	> 100 µM	97 µM	41.3 µM	> 100 µM	> 100 µM
Cc1nc2n(c1/C=C1/C(=O)Nc3cccc(Cl)c31)CCS2	> 100 µM	> 100 µM	> 100 µM	> 100 µM	> 100 µM	> 100 µM	> 100 µM	35.1 µM	> 100 µM	50.6 µM
N#CCCC1C(C#N)C2(Cl)CC1(Cl)C(Cl)=C2Cl (stereo not given)	> 10 µM	> 10 µM	> 10 µM	> 10 µM	> 10 µM	> 10 µM	> 10 µM	> 10 µM	> 10 µM	> 10 µM
CC(C)=CCc1c2c(c3occ(-c4ccc(O)cc4)c(=O)c3c1O)CC(C(C)(C)O)O2 (stereo not given)	27.9 µM	49.1 µM	35.5 µM	28.3 µM	25.8 µM	58.5 µM	42.1 µM	33 µM	30.5 µM	30.3 µM
